# Source: PubChem BioAssay (NCI)
#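 Tested at 5 concentrations; 48 h exposure; 96-well plates; endpoints linearly interpolated, else capped at highest concentration. The concentration for 50% growth inhibition is given as GI50. TGI is the concentration that stops growth completely.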
# Assays:
# Assay in all cases: NCI tumour cell line growth inhibition, 48 h
# [1] = system: PC-3 prostate
# [2] = system: CAKI-1 renal
# [3] = system: SN12C renal
# [4] = system: NCI/ADR-RES ovarian
# [5] = system: SW-620 colon
# [6] = system: RPMI-8226 leukemia
# [7] = system: UACC-62 melanoma
# [8] = system: CCRF-CEM leukemia
# [9] = system: SNB-75 CNS
# [10] = system: TK-10 renal
# [11] = system: A549 NSCLC
# [12] = system: SK-MEL-28 melanoma
# [13] = system: MOLT-4 leukemia
# [14] = system: T-47D breast
# [15] = system: SK-OV-3 ovarian
# [16] = system: 786-0 renal
# [17] = system: ACHN renal
# [18] = system: MCF7 breast
# [19] = system: NCI-H522 lung
# [20] = system: M14 melanoma
# [21] = system: SF-539 CNS
# [22] = system: MALME-3M melanoma
# [23] = system: SR leukemia
# [24] = system: OVCAR-8 ovarian
# [25] = system: DU-145 prostate
# [26] = system: NCI-H23 lung
# [27] = system: OVCAR-4 ovarian
# [28] = system: UACC-257 melanoma
# [29] = system: COLO 205 colon
# [30] = system: HL-60(TB) leukemia
# [31] = system: OVCAR-5 ovarian
# [32] = system: A498 renal
# [33] = system: LOX IMVI melanoma
# [34] = system: HCC-2998 colon
# [35] = system: NCI-H460 lung
# [36] = system: MDA-MB-231 breast
# [37] = system: HCT-15 colon
# [38] = system: HT29 colon
# [39] = system: SF-295 CNS
# [40] = system: HS 578T breast
# [41] = system: SF-268 CNS
# [42] = system: UO-31 renal
# [43] = system: SNB-19 CNS
# [44] = system: HOP-62 NSCLC
# [45] = system: MDA-MB-435
# [46] = system: RXF 393 renal
# [47] = system: NCI-H226 lung
# [48] = system: HOP-92 NSCLC
# [49] = system: BT-549 breast
# [50] = system: SK-MEL-5 melanoma
# [51] = system: IGROV1 ovarian
# [52] = system: KM12 colon
# [53] = system: EKVX NSCLC
# [54] = system: K-562 leukemia
# [55] = system: SK-MEL-2 melanoma
# [56] = system: U251 CNS
# [57] = system: HCT-116 colon
smiles,measurement,setting,value
N#Cc1cnc2ccc(-c3cnc(N)nc3)cc2c1N1CCc2cc(F)c(Cl)cc21,GI50,[1],445 nM
same,TGI,[1],12300 nM
same,GI50,[2],268 nM
same,TGI,[2],2800 nM
same,GI50,[3],395 nM
same,TGI,[3],14700 nM
same,GI50,[4],827 nM
same,TGI,[4],25900 nM
same,GI50,[5],977 nM
same,TGI,[5],10800 nM
same,GI50,[6],325 nM
same,TGI,[6],3190 nM
same,GI50,[7],363 nM
same,TGI,[7],2600 nM
same,GI50,[8],486 nM
same,TGI,[8],> 100000 nM
same,GI50,[9],144 nM
same,TGI,[9],834 nM
same,GI50,[10],260 nM
same,TGI,[10],2000 nM
same,GI50,[11],479 nM
same,TGI,[11],13200 nM
same,GI50,[12],703 nM
same,TGI,[12],6730 nM
same,GI50,[13],577 nM
same,TGI,[13],> 64600 nM
same,GI50,[14],233 nM
same,GI50,[15],391 nM
same,TGI,[15],3690 nM
same,GI50,[16],425 nM
same,TGI,[16],3950 nM
same,GI50,[17],489 nM
same,TGI,[17],11900 nM
same,GI50,[18],300 nM
same,TGI,[18],14000 nM
same,GI50,[19],1270 nM
same,TGI,[19],8080 nM
same,GI50,[20],612 nM
same,TGI,[20],8510 nM
same,GI50,[21],505 nM
same,TGI,[21],3360 nM
same,GI50,[22],366 nM
same,TGI,[22],2960 nM
same,GI50,[23],329 nM
same,TGI,[23],> 19900 nM
same,GI50,[24],453 nM
same,TGI,[24],13900 nM
same,GI50,[25],510 nM
same,TGI,[25],> 39500 nM
same,GI50,[26],1010 nM
same,TGI,[26],9840 nM
same,GI50,[27],314 nM
same,TGI,[27],7240 nM
same,GI50,[28],1300 nM
same,TGI,[28],6870 nM
same,GI50,[29],795 nM
same,TGI,[29],2850 nM
same,GI50,[30],705 nM
same,TGI,[30],4380 nM
same,GI50,[31],437 nM
same,TGI,[31],11300 nM
same,GI50,[32],147 nM
same,TGI,[32],552 nM
same,GI50,[33],355 nM
same,TGI,[33],7970 nM
same,GI50,[34],572 nM
same,TGI,[34],7500 nM
same,GI50,[35],425 nM
same,TGI,[35],11000 nM
same,GI50,[36],450 nM
same,TGI,[36],7930 nM
same,GI50,[37],385 nM
same,TGI,[37],11500 nM
same,GI50,[38],587 nM
same,TGI,[38],9740 nM
same,GI50,[39],311 nM
same,TGI,[39],4490 nM
same,GI50,[40],186 nM
same,TGI,[40],774 nM
same,GI50,[41],437 nM
same,TGI,[41],5280 nM
same,GI50,[42],142 nM
same,TGI,[42],4640 nM
same,GI50,[43],964 nM
same,TGI,[43],17200 nM
same,GI50,[44],434 nM
same,TGI,[44],> 21700 nM
same,GI50,[45],495 nM
same,TGI,[45],3560 nM
same,GI50,[46],221 nM
same,TGI,[46],1250 nM
same,GI50,[47],555 nM
same,TGI,[47],11300 nM
same,GI50,[48],201 nM
same,TGI,[48],1180 nM
same,GI50,[49],239 nM
same,TGI,[49],1800 nM
same,GI50,[50],1220 nM
same,TGI,[50],2520 nM
same,GI50,[51],235 nM
same,TGI,[51],1260 nM
same,GI50,[52],773 nM
same,TGI,[52],4180 nM
same,GI50,[53],496 nM
same,TGI,[53],3950 nM
same,GI50,[54],997 nM
same,TGI,[54],> 100000 nM
same,GI50,[55],531 nM
same,TGI,[55],2020 nM
same,GI50,[56],714 nM
same,TGI,[56],9580 nM
same,GI50,[57],917 nM
same,TGI,[57],2640 nM
